Tests used:
thrombosis = assay: inhibiting effect on thrombosis (arterio-venous by-pass, silk thread); type: in vivo, SD type male rats; conditions: Rattus norvegicus; 100 mg/kg oral, 5 hours before first circulation, rats; read-out: Thrombosis inh.
Method: Inhibiting effect on thrombosis:
The inhibiting effects of the samples of the invention on thrombosis were tested by the following test method.
A 0.5 ml of 50 μ/ml of the heparin physiological saline was added through the polyethylene tube before the first blood circulation. After the blood circulation for 15 minutes, the circulation was stopped in the middle of the tubing at artery side with a pinch cock.
Then, 0.2 ml of the heparin physiological saline was added to remove the blood coagulates on the tubing wall and another new polyethylene tubing filled with the heparin solution and containing a piece of new silk thread was attached between the venous and artery tubing ends.
The blood circulation was reestablished by opening the pinch cock. After 15 minutes, the wet weight of thrombus on the silk thread was similarly measured. In the same manner, the third circulation was performed and wet weight of thrombus measured.
The amount of thrombus was given by the equation A. [formula] Each sample was suspended in an aqueous solution of sodium carboxymethyl cellulose and the oral dose of the suspension (100 mg/kg) was performed at 5 hours before the first blood circulation. The amount of thrombus after the oral dose of the sample was calculated in the same manner as that of control circulations.
The thrombosis inhibition rate was given by the equation B. [formula]

platelet aggregation = assay: blood platelet aggregation inhibition, collagen as inducer; type: cell-based; conditions: 10^-4 mole, rabbit PRP
Excerpt: Blood platelet aggregation inhibiting effect
Male rabbits (Japan original white strain 3.3 to 3.6 kg) were anesthetized with Thiopental sodium and blood was sampled from the carotid artery.

in vivo = conditions: mouse, po
Method: Each sample was dissolved in olive oil or dispersed in 1% Tween 20 aqueous solution.

[1] = system: painful stretchings induced by acetic acid; assay: acetic acid induced stretching (analgesic effect); conditions: 100 mg/kg oral, 0.7% acetic acid i.p., mice
Method: Each sample was orally administrated in the dosage of 100 mg/kg before injection of acetic acid.

carragheenin edema = assay: acute carragheenin edema inhibition (anti-inflammatory effect); type: in vivo, male rats; conditions: Rattus norvegicus; oral, carragheenin edema, rats; Table 2; read-out: 50% inhibition rate ED50
Method: The edema was induced by subcutaneous injection of 1% carraheenin suspension in saline to the hind paws of male rats weighing 150 to 180 g. Each sample was orally given at the dosage of 100 mg/kg just before the inoculation of carragheenin.

CCCCOc1ccc(C(=O)Cc2ccc(Cl)cc2)cc1 [compound 61]
inhibition in vivo at 100 mg/kg (thrombosis): 8.5% | Blood platelet agg. inh. (percentage inhibition of platelet aggregation) (platelet aggregation): 15.8%

CCCCc1ccc(C(=O)c2ccc(CCCC)cc2)cc1 [compound 43]
inhibition in vivo at 100 mg/kg (thrombosis): 86% | Blood platelet agg. inh. (percentage inhibition of platelet aggregation) (platelet aggregation): 3.5% | LD50 at 72 h (in vivo): > 10000 mg/kg

CCCCCCCCCc1ccc(C(=O)c2ccccc2)cc1 [compound 70]
inhibition in vivo at 100 mg/kg (thrombosis): 10% | Blood platelet agg. inh. (percentage inhibition of platelet aggregation) (platelet aggregation): 17.2%

Cc1cc(C)c(C(=O)c2ccccc2)cc1C [compound 32]
inhibition in vivo at 100 mg/kg (thrombosis): 25% | Analgesic (percentage diminution of times of painful stretchings) [1]: 26.2% | Blood platelet agg. inh. (percentage inhibition of platelet aggregation) (platelet aggregation): 12.4% | LD50 at 72 h (in vivo): 2000 mg/kg

Cc1ccccc1C(=O)c1c(C)c(C)cc(C)c1C [compound 91]
inhibition in vivo at 100 mg/kg (thrombosis): 31% | Blood platelet agg. inh. (percentage inhibition of platelet aggregation) (platelet aggregation): 14.7%

Cc1ccc(C(=O)c2ccccc2)c(C)c1 [compound 37]
inhibition in vivo at 100 mg/kg (thrombosis): 5.3% | Analgesic (percentage diminution of times of painful stretchings) [1]: 9.8% | Blood platelet agg. inh. (percentage inhibition of platelet aggregation) (platelet aggregation): 17.4% | LD50 at 72 h (in vivo): 1000 mg/kg

CCCc1ccc(CCC)c(C(=O)c2ccccc2)c1 [compound 16]
Analgesic (percentage diminution of times of painful stretchings) [1]: 12.4% | Blood platelet agg. inh. (percentage inhibition of platelet aggregation) (platelet aggregation): 8.6% | ED50 (carragheenin edema): 140 mg/kg | LD50 at 72 h (in vivo): 1500 mg/kg

CC(C)(C)c1ccc(C(=O)c2ccccc2)cc1 [compound 22]
inhibition in vivo at 100 mg/kg (thrombosis): 7.9% | Analgesic (percentage diminution of times of painful stretchings) [1]: 8.2% | Blood platelet agg. inh. (percentage inhibition of platelet aggregation) (platelet aggregation): 9.5% | LD50 at 72 h (in vivo): 2000 mg/kg

CCCCCc1ccc(C(=O)c2ccc(C)cc2)cc1 [compound 84]
inhibition in vivo at 100 mg/kg (thrombosis): 16% | Analgesic (percentage diminution of times of painful stretchings) [1]: 15.3% | Blood platelet agg. inh. (percentage inhibition of platelet aggregation) (platelet aggregation): 8.6% | LD50 at 72 h (in vivo): 10000 mg/kg

CCCc1ccc(C(=O)c2ccccc2C)cc1 [compound 90]
inhibition in vivo at 100 mg/kg (thrombosis): 15% | Blood platelet agg. inh. (percentage inhibition of platelet aggregation) (platelet aggregation): 10.8%

CCCCCCOc1ccc(C(=O)Cc2ccc(Cl)cc2)cc1 [compound 62]
inhibition in vivo at 100 mg/kg (thrombosis): 7.8% | Blood platelet agg. inh. (percentage inhibition of platelet aggregation) (platelet aggregation): 12.3%

CCCCc1ccc(C(=O)c2ccc(C)cc2)cc1 [compound 35]
inhibition in vivo at 100 mg/kg (thrombosis): 26.5% | Blood platelet agg. inh. (percentage inhibition of platelet aggregation) (platelet aggregation): 11.3% | LD50 at 72 h (in vivo): > 10000 mg/kg

CCCCCc1ccc(C(=O)c2ccccc2F)cc1 [compound 9]
Analgesic (percentage diminution of times of painful stretchings) [1]: 15.3% | Blood platelet agg. inh. (percentage inhibition of platelet aggregation) (platelet aggregation): 14.6% | ED50 (carragheenin edema): 22 mg/kg | LD50 at 72 h (in vivo): 3000 mg/kg

CCCc1ccc(C(=O)c2ccc(Cl)cc2)cc1 [compound 63]
inhibition in vivo at 100 mg/kg (thrombosis): 6.2% | Blood platelet agg. inh. (percentage inhibition of platelet aggregation) (platelet aggregation): 15.6%

CCCc1ccc(C(=O)c2ccccc2)cc1 [compound 20]
inhibition in vivo at 100 mg/kg (thrombosis): 4.1% | Analgesic (percentage diminution of times of painful stretchings) [1]: 17.3% | Blood platelet agg. inh. (percentage inhibition of platelet aggregation) (platelet aggregation): 36.6% | LD50 at 72 h (in vivo): 2000 mg/kg

COc1ccc(C(=O)Cc2ccccc2)cc1 [compound 57]
inhibition in vivo at 100 mg/kg (thrombosis): 6.5% | Blood platelet agg. inh. (percentage inhibition of platelet aggregation) (platelet aggregation): 12.5%

CCCCc1ccc(C(=O)c2ccccc2C)cc1 [compound 40]
Analgesic (percentage diminution of times of painful stretchings) [1]: 20.3% | Blood platelet agg. inh. (percentage inhibition of platelet aggregation) (platelet aggregation): 11.9% | ED50 (carragheenin edema): 120 mg/kg | LD50 at 72 h (in vivo): 2000 mg/kg

CC(C)c1ccc(C(=O)c2ccccc2)cc1 [compound 21]
inhibition in vivo at 100 mg/kg (thrombosis): 5.4% | Analgesic (percentage diminution of times of painful stretchings) [1]: 16.1% | Blood platelet agg. inh. (percentage inhibition of platelet aggregation) (platelet aggregation): 8.6% | LD50 at 72 h (in vivo): 2000 mg/kg

CCCCc1ccc(C(=O)C(=O)c2ccccc2)cc1 [compound 29]
Analgesic (percentage diminution of times of painful stretchings) [1]: 2.7% | Blood platelet agg. inh. (percentage inhibition of platelet aggregation) (platelet aggregation): 11.1% | ED50 (carragheenin edema): 130 mg/kg | LD50 at 72 h (in vivo): 10000 mg/kg

From patent US4124726A, “Anti-inflammatory agent of benzoyl derivative” (priority 1976, dated 1978)
